Reference: ChEMBL document CHEMBL3774337, “In vivo phase II-enzymes inducers, as potential chemopreventive agents, based on the chalcone and furoxan skeletons” (Bioorg Med Chem, 2016)
The source made the active and inactive calls. The rule behind the calls is not given here.

Key:
Mus musculus [1] = organism: Mus musculus; assay: Induction of quinone reductase specific activity in mouse Hepa1c1c7 cells using 2,6-DCIP as substrate at 10 uM measured for 1 min relative to control; type: cell-based
Mus musculus [2] = organism: Mus musculus; assay: Induction of quinone reductase specific activity in mouse mutant BpRc1 cells expressing defective translocator receptor Arnt using 2,6-DCIP as substrate at 10 uM measured for 1 min relative to control; type: cell-based
Mus musculus [3] = organism: Mus musculus; assay: Ratio of quinone reductase specific activity in mouse Hepa1c1c7 cells to quinone reductase specific activity in mouse mutant BpRc1 cells; type: cell-based
MCF7 = assay: Cytotoxicity against human MCF7 cells at 100 uM after 24 hrs by SRB assay; type: functional, cell-based
HT-29 = assay: Cytotoxicity against human HT-29 cells at 100 uM after 24 hrs by SRB assay; type: functional, cell-based
Salmonella typhimurium [4] = assay: Mutagenicity in Salmonella typhimurium TA98 assessed as revertant colonies at 6 to 500 ug/plate by Ames test in absence of mouse liver S9 fraction; type: toxicity, organism-based; conditions: salmonella enterica subsp. enterica serovar typhimurium
Salmonella typhimurium [5] = assay: Mutagenicity in Salmonella typhimurium TA98 assessed as revertant colonies at 6 to 500 ug/plate by Ames test in presence of mouse liver S9 fraction; type: toxicity, organism-based; conditions: salmonella enterica subsp. enterica serovar typhimurium
[6] = Cytotoxicity against mouse Hepa1c1c7 cells after 48 hrs by SRB assay; type: cell-based; conditions: Hepa-1c1c7, 48 h
Mus musculus [7] = organism: Mus musculus; assay: Induction of quinone reductase specific activity in mouse Hepa1c1c7 cells assessed as concentration required to double enzyme specific activity using 2,6-DCIP as substrate measured for 1 min; type: cell-based
[8] = Chemoprotective index, ratio of IC50 for mouse Hepa1c1c7 cells to CD for quinone reductase activity in mouse Hepa1c1c7 cells
[9] = Cytotoxicity against mouse mutant BpRc1 cells after 48 hrs by SRB assay; type: cell-based; conditions: BPrc1, 48 h
Mus musculus [10] = organism: Mus musculus; assay: Induction of quinone reductase activity in mouse mutant BpRc1 cells using 2,6-DCIP as substrate measured for 1 min; type: cell-based
[11] = Chemoprotective index, ratio of IC50 for mouse mutant BpRc1 cells to CD for quinone reductase activity in mouse mutant BpRc1 cells
Mus musculus [12] = organism: Mus musculus; assay: Ratio of induction of quinone reductase specific activity in mouse mutant BpRc1 cells to mouse Hepa1c1c7 cells; type: cell-based
[13] = target: T1, Nuclear factor erythroid 2-related factor 2 (Mus musculus) (UniProt Q60795); assay: Induction of Nrf2 nuclear translocation in mouse Hepa1c1c7 cells assessed as protein accumulation in nucleus at 20 uM by DAPI staining based immunofluorescence assay; type: cell-based
T1 sequence (whole entry): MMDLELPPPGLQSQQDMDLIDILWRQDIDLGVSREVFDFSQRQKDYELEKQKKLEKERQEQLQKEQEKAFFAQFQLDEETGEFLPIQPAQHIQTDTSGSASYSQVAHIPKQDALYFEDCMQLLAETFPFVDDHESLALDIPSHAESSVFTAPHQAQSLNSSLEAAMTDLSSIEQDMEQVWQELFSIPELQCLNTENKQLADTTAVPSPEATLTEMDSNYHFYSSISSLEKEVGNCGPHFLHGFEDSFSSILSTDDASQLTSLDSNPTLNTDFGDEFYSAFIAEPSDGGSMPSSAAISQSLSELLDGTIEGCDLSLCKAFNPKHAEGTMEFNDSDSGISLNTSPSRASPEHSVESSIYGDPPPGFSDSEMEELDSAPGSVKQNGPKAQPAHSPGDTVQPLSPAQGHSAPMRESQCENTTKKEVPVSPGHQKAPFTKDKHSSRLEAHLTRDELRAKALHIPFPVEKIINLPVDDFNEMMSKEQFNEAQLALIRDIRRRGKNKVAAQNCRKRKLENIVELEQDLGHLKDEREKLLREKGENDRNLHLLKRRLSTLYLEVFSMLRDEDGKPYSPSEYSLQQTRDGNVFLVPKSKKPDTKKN

Rattus norvegicus [14] = assay: Induction of quinone reductase activity in cytosolic fraction of Wistar rat liver at 15 mg/kg/day, po for two weeks using 2,6-DCIP as substrate measured for 1 min relative to control; type: functional
Rattus norvegicus [15] = assay: Induction of glutathione S-transferase activity in cytosolic fraction of Wistar rat liver at 15 mg/kg/day, po for two weeks using CDNB as substrate measured for 1 min relative to control; type: functional
Rattus norvegicus [16] = assay: Induction of CYP450 activity in microsomal fraction of Wistar rat liver at 15 mg/kg/day, po for two weeks using 7-ethoxyresorufine as substrate measured for 5 mins relative to control; type: ADME, organism-based; conditions: in vivo
Rattus norvegicus [17] = assay: Induction of quinone reductase activity in cytosolic fraction of Wistar rat colon at 15 mg/kg/day, po for two weeks using 2,6-DCIP as substrate at 10 uM measured for 1 min relative to control; type: functional
Rattus norvegicus [18] = assay: Induction of glutathione S-transferase activity in cytosolic fraction of Wistar rat colon at 15 mg/kg/day, po for two weeks using CDNB as substrate measured for 1 min relative to control; type: functional
Rattus norvegicus [19] = assay: Induction of CYP450 activity in microsomal fraction of Wistar rat colon at 15 mg/kg/day, po for two weeks using 7-ethoxyresorufine as substrate measured for 5 mins; type: ADME, organism-based; conditions: in vivo
Salmonella typhimurium [20] = assay: Mutagenicity in Salmonella typhimurium TA98 assessed as revertant colonies at 5 to 400 ug/plate by Ames test in absence of mouse liver S9 fraction; type: toxicity, organism-based; conditions: salmonella enterica subsp. enterica serovar typhimurium
Salmonella typhimurium [21] = assay: Mutagenicity in Salmonella typhimurium TA98 assessed as revertant colonies at 5 to 400 ug/plate by Ames test in presence of mouse liver S9 fraction; type: toxicity, organism-based; conditions: salmonella enterica subsp. enterica serovar typhimurium
Rattus norvegicus [22] = assay: Toxicity in Wistar rat assessed as change in body weight at 15 mg/kg/day, po for two weeks; type: organism-based; conditions: in vivo
Rattus norvegicus [23] = assay: Toxicity in Wistar rat assessed as change in behaviors at 15 mg/kg/day, po for two weeks; type: organism-based; conditions: in vivo
[24] = Toxicity in Wistar rat assessed as survival at 15 mg/kg/day, po for two weeks; type: organism-based; conditions: in vivo
Salmonella typhimurium [25] = assay: Mutagenicity in Salmonella typhimurium TA98 assessed as revertant colonies at 0.5 to 30 ug/plate by Ames test in absence of mouse liver S9 fraction; type: toxicity, organism-based; conditions: salmonella enterica subsp. enterica serovar typhimurium
Salmonella typhimurium [26] = assay: Mutagenicity in Salmonella typhimurium TA98 assessed as revertant colonies at 0.5 to 30 ug/plate by Ames test in presence of mouse liver S9 fraction; type: toxicity, organism-based; conditions: salmonella enterica subsp. enterica serovar typhimurium
Salmonella typhimurium [27] = assay: Mutagenicity in Salmonella typhimurium TA98 assessed as revertant colonies at 2 to 167 ug/plate by Ames test in absence of mouse liver S9 fraction; type: toxicity, organism-based; conditions: salmonella enterica subsp. enterica serovar typhimurium
Salmonella typhimurium [28] = assay: Mutagenicity in Salmonella typhimurium TA98 assessed as revertant colonies at 2 to 167 ug/plate by Ames test in presence of mouse liver S9 fraction; type: toxicity, organism-based; conditions: salmonella enterica subsp. enterica serovar typhimurium
Salmonella typhimurium [29] = assay: Mutagenicity in Salmonella typhimurium TA98 assessed as revertant colonies at 0.5 to 40 ug/plate by Ames test in absence of mouse liver S9 fraction; type: toxicity, organism-based; conditions: salmonella enterica subsp. enterica serovar typhimurium
Salmonella typhimurium [30] = assay: Mutagenicity in Salmonella typhimurium TA98 assessed as revertant colonies at 0.5 to 40 ug/plate by Ames test in presence of mouse liver S9 fraction; type: toxicity, organism-based; conditions: salmonella enterica subsp. enterica serovar typhimurium
Salmonella typhimurium [31] = assay: Mutagenicity in Salmonella typhimurium TA98 assessed as revertant colonies at 0.02 to 2 ug/plate by Ames test in absence of mouse liver S9 fraction; type: toxicity, organism-based; conditions: salmonella enterica subsp. enterica serovar typhimurium
Salmonella typhimurium [32] = assay: Mutagenicity in Salmonella typhimurium TA98 assessed as revertant colonies at 0.02 to 2 ug/plate by Ames test in presence of mouse liver S9 fraction; type: toxicity, organism-based; conditions: salmonella enterica subsp. enterica serovar typhimurium

SMILES	fold change (FC) (Mus musculus [1])	fold change (FC) (Mus musculus [2])	Ratio (Mus musculus [3])	Activity (MCF7)	Activity (HT-29)	Activity (Rattus norvegicus [14])	Activity (Rattus norvegicus [22])	Activity (Rattus norvegicus [23])	survival at 2 weeks [24] [%]	further results
Cc1c(/C=C/C(=O)c2ccccc2O)no[n+]1[O-]	1.49	1.18	1.26	Active	Active					Activity (Salmonella typhimurium [4]): Non-toxic; Activity (Salmonella typhimurium [5]): Non-toxic
O=C(/C=C/c1c(-c2ccccc2)no[n+]1[O-])c1ccccc1	1.9	1.58	1.2	Active	Active	110%	Non-toxic	Non-toxic	100	IC50 [6]: 36 µM; CD (Mus musculus [7]): 12 µM; Ratio [8]: 3; IC50 [9]: 38 µM; CD (Mus musculus [10]): 13 µM; Ratio [11]: 2.9; Ratio (Mus musculus [12]): 1.1; Activity [13]: Active; Activity (Rattus norvegicus [15]): 180%; Activity (Rattus norvegicus [16]): 60%; Activity (Rattus norvegicus [17]): 12%; Activity (Rattus norvegicus [18]): 13%; Activity (Rattus norvegicus [19]): Not Active; Activity (Salmonella typhimurium [20]): Non-toxic; Activity (Salmonella typhimurium [21]): Non-toxic
CC(C)(C)c1cc(O)ccc1O [E319]										IC50 [6]: 147 µM; CD (Mus musculus [7]): 1 µM; Ratio [8]: 147; IC50 [9]: 60 µM; CD (Mus musculus [10]): 6 µM; Ratio [11]: 10; Ratio (Mus musculus [12]): 6; Activity [13]: Active
O=C(/C=C/c1ccccc1)c1ccccc1O [2'-HYDROXYCHALCONE]						Active	Non-toxic	Non-toxic	100	Activity (Rattus norvegicus [15]): Active
COc1ccc(/C=C/C(=O)c2ccccc2)cc1 [4-METHOXY CHALCONE]						Active	Non-toxic	Non-toxic	100	
O=c1cc(-c2ccc(Br)cc2)oc2ccccc12	4.45	1.49	2.99							IC50 [6]: 85 µM; CD (Mus musculus [7]): 0.79 µM; Ratio [8]: 107; IC50 [9]: 150 µM; CD (Mus musculus [10]): 80 µM; Ratio [11]: 1.9; Ratio (Mus musculus [12]): 100
O=C(/C=C/c1ccc2c(c1)no[n+]2[O-])c1ccc2ccccc2c1	1.77	1.01	1.75	Active	Active					
Cc1c(/C=C/C(=O)c2ccc3ccccc3c2)no[n+]1[O-]	1.49	0.99	1.5	Active	Active					Activity (Salmonella typhimurium [4]): Non-toxic; Activity (Salmonella typhimurium [5]): Non-toxic
O=C(/C=C/c1c(-c2ccccc2)no[n+]1[O-])c1ccc2ccccc2c1	2.49	1.06	2.35							Activity (Salmonella typhimurium [25]): Non-toxic; Activity (Salmonella typhimurium [26]): Non-toxic
O=C(/C=C/c1ccc2c(c1)no[n+]2[O-])c1ccccc1	1.01	1.7	0.59	Active	Active					Activity (Salmonella typhimurium [27]): Toxic; Activity (Salmonella typhimurium [28]): Non-toxic
O=C(/C=C/c1ccc(Br)cc1)c1ccccc1O						128%	Non-toxic	Non-toxic	100	
O=C(/C=C/c1c(-c2ccccc2)no[n+]1[O-])c1ccccc1O	3.01	1.82	1.65	Active	Active	80%	Non-toxic	Non-toxic	100	IC50 [6]: 40 µM; CD (Mus musculus [7]): 8 µM; Ratio [8]: 5; IC50 [9]: 38 µM; CD (Mus musculus [10]): 12 µM; Ratio [11]: 3.2; Ratio (Mus musculus [12]): 1.5; Activity [13]: Active; Activity (Rattus norvegicus [15]): 110%; Activity (Rattus norvegicus [16]): 40%; Activity (Rattus norvegicus [17]): Active; Activity (Rattus norvegicus [18]): Active; Activity (Rattus norvegicus [19]): Active; Activity (Salmonella typhimurium [29]): Non-toxic; Activity (Salmonella typhimurium [30]): Non-toxic
Cc1c(/C=C/C(=O)c2ccccc2)no[n+]1[O-]	1.35	1.01	1.34	Active	Active					Activity (Salmonella typhimurium [31]): Non-toxic; Activity (Salmonella typhimurium [32]): Non-toxic
O=C(/C=C/c1ccc2c(c1)no[n+]2[O-])c1ccccc1O	1.39	1.18	1.18							Activity (Salmonella typhimurium [4]): Non-toxic; Activity (Salmonella typhimurium [5]): Non-toxic
